Source: patent publication US20140179607A9 (IRONWOOD PHARMACEUTICALS, INC, priority 2009, published 2014)
Positions of bridges follow the written chain, without caps; N, C: chain ends. Non-standard residues stand in square brackets, D forms with d. Residues, ends and D or L forms follow the SMILES beside them. pS = N[C@@H](COP(=O)(O)O)C(=O)O

Assays:
[1] = biological target: T1, Calf intestinal alkaline phosphatase (CIP) (Bos taurus, UniProt P19111); test: Alkaline phosphatase reaction (dephosphorylation of peptide substrates, LCMS); format: in vitro ADME; settings: Alkaline phosphatase pH 8, 90 minutes at 37° C.
T1 construct: purchased New England BioLabs, Ipswich, Mass; M0290S
T1 sequence (P19111 20-506): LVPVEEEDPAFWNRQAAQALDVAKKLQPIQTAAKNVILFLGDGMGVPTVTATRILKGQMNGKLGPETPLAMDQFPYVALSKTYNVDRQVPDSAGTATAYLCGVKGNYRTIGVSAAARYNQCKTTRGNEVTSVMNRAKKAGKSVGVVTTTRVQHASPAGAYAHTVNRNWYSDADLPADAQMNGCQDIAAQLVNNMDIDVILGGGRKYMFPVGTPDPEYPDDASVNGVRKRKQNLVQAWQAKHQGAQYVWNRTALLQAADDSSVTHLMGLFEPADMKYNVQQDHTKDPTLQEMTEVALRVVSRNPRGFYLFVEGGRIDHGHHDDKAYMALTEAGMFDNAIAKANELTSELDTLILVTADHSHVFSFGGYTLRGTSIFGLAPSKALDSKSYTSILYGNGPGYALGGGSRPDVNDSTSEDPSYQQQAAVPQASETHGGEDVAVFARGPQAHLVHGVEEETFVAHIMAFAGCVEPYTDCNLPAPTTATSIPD
Method: (§1) For the alkaline phosphatase reactions, peptide stocks were prepared at 1 mg/mL in 0.1 M Tris-HCl pH 8, which were stored at −20° C. until assays were conducted. For the acid phosphatase reactions, peptide stocks were prepared at 1 mg/mL in 50 mM sodium phosphate pH 6, which was stored at −20° C. until assays were conducted.
(§2) Calf intestinal alkaline phosphatase (CIP) was obtained from New England BioLabs, Ipswich, Mass. Cat # M0290S. The CIP reaction solution was prepared by dilution with buffer (50 mM KCl, 10 mM Tris-HCl pH 8, 1 mM MgCl2, 50% glycerol) to 0.5 units/μL. The alkaline phosphatase reaction solutions were assembled in 20 μL quantities containing: • 2 μL 10× CIP buffer (1M NaCl, 500 mM Tris-HCl pH 8, 100 mM MgCl2) • 2 μL peptide stock (1 mg/mL) • 12 μL H2O • 4 μL alkaline phosphatase (0, 0.5 or 2 units)
(§3) The reaction solutions were mixed gently and incubated for 90 minutes at 37° C. These reaction solutions were stored at −20° C. until analysis. For analysis, the reaction solutions were diluted from 7.5 μL of CIP treated peptide to 50 μL with 0.1% formic acid in water to a final concentration of 10 μM.
(§4) Control reactions were assembled for enzyme activity containing 10 mM p-nitrophenylphosphate in place of peptide. After incubation, the reactions were diluted with 0.1 mL of 100 mM borate buffer pH 9 and read at the absorbance of 405 nm to monitor p-nitrophenol appearance.

[2] = test system: T2, calf intestinal alkaline phosphatase (CIP); test: as above; format: in vitro ADME; settings: calf intestinal alkaline phosphatase (CIP); Alkaline phosphatase pH 8, 90 minutes at 37° C.
T2 construct: purchased New England BioLabs, Ipswich, Mass; M0290S
Method: as §1, §2, §3, §4

[3] = biological target: T3, human prostate acid phosphatase (HuPrAP) (Homo sapiens, UniProt P15309); test: Acid phosphatase reaction, human prostate acid phosphatase; format: in vitro ADME; settings: Human prostatic acid phosphatase pH 5, 90 minutes at 37° C.
T3 construct: purchased MP Biochemicals, Solon, Ohio 153872
T3 sequence (P15309 33-386): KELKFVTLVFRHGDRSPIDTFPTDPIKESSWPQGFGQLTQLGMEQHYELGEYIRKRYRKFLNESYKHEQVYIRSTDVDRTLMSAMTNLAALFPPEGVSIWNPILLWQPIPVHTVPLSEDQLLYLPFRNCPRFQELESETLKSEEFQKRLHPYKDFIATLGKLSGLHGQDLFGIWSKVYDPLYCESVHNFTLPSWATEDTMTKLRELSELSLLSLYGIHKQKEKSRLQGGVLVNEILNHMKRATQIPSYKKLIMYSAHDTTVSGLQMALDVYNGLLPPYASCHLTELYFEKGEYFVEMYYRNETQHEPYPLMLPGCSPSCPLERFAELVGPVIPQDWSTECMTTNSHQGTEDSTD
Method: as §1
(§5) Potato acid phosphatase (PoAP) was obtained from Sigma, St. Louis, Miss. Cat #P1146 and human prostate acid phosphatase (HuPrAP) was obtained from MP Biochemicals, Solon, Ohio. Cat # 153872. The acid phosphatases were dissolved to provide a solution containing 0.5 units AP/μL using 50 mM sodium acetate pH 5, 0.2 mM MgCl2. The acid phosphatase reactions were assembled in 20 μL quantities containing: • 2 μL 10× acid phosphatase buffer (500 mM sodium acetate pH 5, 2 mM MgCl2) • 2 μL peptide stock (1 mg/mL) • 12 μL H2O • 4 μL acid phosphatase (0.5 or 2 units)
(§6) The reaction solutions were mixed gently and incubated for 90 minutes at 37° C. The reaction solutions were stored at −20° C. for later analysis. For analysis, 7.5 μL acid phosphatase reactions were diluted to 50 μL with 0.1% formic acid in water to a final concentration of 10 μM. The control reactions for enzyme activity were assembled and diluted to 10 mM p-nitrophenylphosphate in place of peptide. After incubation, the reactions were diluted with 0.1 mL of 100 mM borate buffer pH 9 and read at the absorbance of 405 nm to monitor p-nitrophenol appearance.

[4] = test system: Potato acid phosphatase (PoAP); test: Acid phosphatase reaction, potato acid phosphatase; format: in vitro ADME; settings: Potato acid phosphatase pH 5, 90 minutes at 37° C.
Method: as §1, §5, §6

[5] = test system: potato acid phosphatase (PoAP); test: Acid phosphatase reaction, potato acid phosphatase; format: in vitro ADME; settings: potato acid phosphatase (PoAP); Potato acid phosphatase pH 5, 90 minutes at 37° C.
Method: as §1, §5, §6

[6] = test system: female CD-1 mice; test: Gastrointestinal transit in mice (charcoal meal); format: in vivo; settings: oral gavage, % distance travelled by charcoal front
Method: The purpose of the assay was to test the effect of the guanylate cyclase C agonist peptides on in vivo gastrointestinal transit in mice.
For the assay, female CD-1 mice (n=10 per group) weighing 25-30 g were fasted overnight and given access to water ad libitum. Activated charcoal (20 g; 100 mesh; Sigma cat# 242276) was suspended in 200 mL gum arabic (100 mg/mL), and stirred for at least one hour. Test peptides were prepared in a 20 mM Tris pH 6.9 vehicle.
Test peptide and vehicle were administered in 200 μL doses by oral gavage. Seven minutes after dosing the test peptides, 200 μL of the charcoal/gum arabic suspension was dosed by oral gavage. […] The total length of the small intestine was measured from the pyloric junction to the ileocaecal junction. The distance travelled by the charcoal was measured from the pyloric junction to the charcoal front. The Distance Travelled (%) was determined as (distance travelled by charcoal/total length of the small intestine)×100. Data were entered into the GraphPad Prism software program and analyzed by ANOVA using a Bonferroni multiple comparison test post-hoc. Plots of data and ED50 were also determined using the GraphPad Prism software package.
The dose-dependent effects of acute doses of Peptide 4, Peptide 1, Peptide 2, the dephosphorylated form of Peptide 1 and the dephosphorylated form of Peptide 2 on GI transit were determined in female CD mice. […]

[7] = test system: ligated rat duodenal loops; test: Fluid secretion in rat intestinal loops; format: in vivo, rats
Method: The effect of GC-C agonist peptides on secretion were studied by injecting GC-C agonist peptides described herein directly into an isolated loop in wild-type rats.
Loops were isolated by surgically ligating three loops in the small intestine of the rat. The methodology for ligated loop formation was similar to that described in (London et al., 1997, Am J Physiol, p. G93-105). The loops were roughly centered and at lengths of 1-3 cm. The loops were injected with 200 μl of either peptide/GC-C agonist (0.1-5 μg) or vehicle (20 mM Tris, pH 7.5 or Krebs Ringer, 10 mM Glucose, HEPES buffer (KRGH)). Following a recovery time of up to 90 minutes the loops were excised. Weights were recorded for each loop before and after removal of the fluid contained therein. The length of each loop was also recorded. A weight to length ratio (W/L) for each loop was calculated to determine the effects of the GC-C agonist peptide described herein on secretion. Loop fluid volume was also determined.
Data showing increases in fluid secretion, pH increase and bicarbonate secretion in ligated duodenal loops in rats are shown in FIG. 2 and Table 8. […] Table 8 provides the results in ligated rat duodenal loops using 2.5 μg of peptide per loop.

[8] = 2.5 μg of peptide per loop, duodenal loops

Compound	Dephospho (%) [1]	remaining at 1.5 h, 0.1 mg/mL [2]	Dephospho (%) [3]	remaining at 1.5 h, 0.1 mg/mL ([3]; human prostate acid phosphatase (HuPrAP))	Dephospho (%) [4]	remaining at 1.5 h, 0.1 mg/mL [5]	ED50 (μg/kg), acceleration of upper GI transit [6]	Rate of HCO3^− accumulation [7, 8]	Rate of fluid accumulation [7, 8]	pH [7, 8]	Induction of fluid accumulation / duodenal fluid secretion (FIG. 2) ([7]; ligated rat duodenal loops)
CC(C)C[C@@H]1NC(=O)[C@H](COP(=O)(O)O)NC(=O)[C@@H]2CSSC[C@@H]3NC(=O)[C@H](C)NC(=O)[C@@H]4CCCN4C(=O)[C@H](CC(N)=O)NC(=O)[C@H](CSSC[C@H](N)C(=O)N2)NC(=O)[C@H](CSSC[C@@H](C(=O)N[C@@H](Cc2ccc(O)cc2)C(=O)O)NC(=O)CNC(=O)[C@H]([C@@H](C)O)NC3=O)NC1=O [Peptide 1, CCpSLCCNPACTGCY] (H-CC[pS]LCCNPACTGCY-OH; disulfide 1-6, 2-10, 5-13 (inferred); N-terminus and C-terminus assumed)	100%	0%	6.2%	93.8%	22.1%	77.8%					
CCEFCCNPACTGCY [Peptide 4, GC-C agonist peptide with Glu in place of phosphoserine, used as comparator]							2.06 µg/kg	0.00008 Meq/min/cm	2.0 µL/min/cm	8.2	promote duodenal fluid secretion
